How the values were obtained:
[1] = tested on: honey bees (single VSH colony); test: Induced hygienic behavior study with synthesized P32 applied to cell caps by airbrushing; type: in vivo, honey bee; settings: for dose dependence of removal: concentrations 1%, 0.3%, 0.1% by airbrushing; for removal of pupae in treated brood cells compared to all control brood cells: roughly 10 ul per cell by airbrushing, 24 hours, controls: (Z)-16-dotriacontene at any concentration, hexane, no treatment
Method: Methods: The dose dependent removal effects of (Z)-10-tritriacontene and (Z)-16-dotriacontene applied to wax caps of honey bee brood cells were measured repeatedly in a single VSH colony. (Z)-10-tritriacontene, along with (Z)-16-dotriacontene and hexane controls were applied to capped honey bee brood cells using a Paasche H-100D Single Action Airbrush & Compressor system, operating at 25 PSI. To control the amount of brood cells exposed to each chemical treatment (and thus the dose per cell) 3″ diameter PVC pipe pieces were inserted into a brood frames containing capped pupae. Thus, for each treatment and replicate, 2 mL of solution was applied to a single 3″-diameter section of brood comb by airbrushing. Since there are roughly 200 cells per 3″ diameter circle, this is roughly 10 ul solution per cell. Concentrations of 1%, 0.3%, and 0.1% (Z)-10-tritriacontene and (Z)-16-dotriacontene were tested. Sample sizes for (Z)-10-tritriacontene were 532, 420, and 282 cells for concentrations of 1%, 0.3%, and 0.1%, respectively. Sample sizes for (Z)-16-dotriacontene were 289, 296, and 311 for concentrations of 1%, 0.3%, and 0.1%, respectively. Sample sizes for the hexane control and no treatment control were 425 and 154, respectively. The location of all assays on frames was randomized. The frequency of uncapping and removal was recorded at four hours and twenty-four hours post treatment. Chi-square analysis with Bonferroni correction was used to compare hygienic removal and uncapping between treatments.

[2] = tested on: honey bees (MH and control colonies); test: Induced hygienic behavior study with synthesized P32 applied to cell caps by syringe; type: in vivo, honey bee; settings: results discarded by the patent for methodological issues
Method: Methods: The pure P32 compound will be aliquoted and diluted in hexane. 1 ul of different dilutions will be applied onto larvae and/or caps of individual brood cells in three experimental hives. The VSH, MH, and control genotype (together, hereinafter, referred to as “line”) will be tested for their response. Hives from each source will be set up in an experimental apiary and standardized in size, brood, and resources. Brood frames containing uncapped 5th larval instars will be collected from each hive, and the location of the uncapped cells will be marked using a plastic transparency. Frames will be replaced into the hives, and cells that are capped within the next 16 hours will be recorded and used for the experiment. At day 4 post-capping, cells will be treated with hexane (a negative control) or one of the following dilutions of pure P32: 10^−1, 10^−3, 10^−5, 10^−7, 10^−9, 10^−11. Pin-killed brood will be used as a positive control. Twenty cells will receive each treatment in each colony for a total sample size of 1440 (20 cells×8 treatments×3 replicate hives×3 genotypes). Treatments will be randomly distributed across experimental combs and the location of each treatment recorded on a clear transparent sheet put over the comb. […] A new method for application of chemicals by airbrushing was also utilized to increase speed and quantity in chemical application (FIG. 12).

Row | Structure (SMILES) | dose dependence of removal [1] | removal of pupae in treated brood cells compared to all control brood cells ([1]; 0.3% in hexane) | removal of pupae in treated brood cells compared to all control brood cells ([1]; 1% in hexane) | removal of treated cells compared to hexane treated cells ([2]; MH colonies (both tested)) | removal of treated cells compared to hexane treated cells ([2]; control colonies)
1 | CCCCCCCCCCCCCCC/C=C\CCCCCCCCCCCCCCC [(Z)-16-dotriacontene, reference compound] | removed in a dose-dependent manner | – | – | – | –
2 | CCCCCCCCC/C=C\CCCCCCCCCCCCCCCCCCCCCC [(Z)-10-tritriacontene] | removed in a dose-dependent manner | significantly greater | significantly greater | significantly higher removal | no significant difference

— US10524455B2, “Methods and compositions for inducing hygienic behavior in honey bees” (University of North Carolina at Greensboro, priority 2015, dated 2020)
